Assay results from patent US20230219912A1, “HALOGENATED BENZOTHIADIAZINES FOR THE TREATMENT OF CANCER” (BOARD OF REGENTS OF THE UNIVERSITY OF NEBRASKA, priority 2020, published 2023).
Entries after “also recorded” stand apart in the source; their conditions may differ. Like-named read-outs stand apart in the source and are kept apart here.

Assays:
[1] = test system: 22Rv1 prostate cancer cells; experiment: MTS cytotoxicity assay in 22Rv1 prostate cancer cells; settings: for reduction of 22Rv1 cell viability: 100 μM, 48 hrs treatment, MTS; for cytotoxicity at 100 µM: Homo sapiens, 22Rv1, 48 h, read-out: reduction of 22Rv1 cell viability
Method: The assay was performed as follows. To determine the cell growth inhibition ability of the synthesized compounds the (3-(4,5-dimethylthiazol-2-yl)-5-(3-carboxymethoxyphenyl)-2-(4-sulfophenyl)-2H-tetrazolium) (MTS) assay used according to the manufacturer's recommended protocol. Stock solutions of the synthesized compounds were prepared in DMSO. Cells were seeded at a density of 1×10^5 cells in 96-well plates. After 24 hours, cells were treated at the indicated concentrations of test compounds, limiting the final DMSO concentration to less than 1%. After incubation at 37° C. in an environment of 5% CO2 for 48-72 hours, 10 μL of MTS reagent (CellTiter 96© AQueous One Solution Reagent) was added to each well and incubated at the above mentioned conditions for 2-4 hr. Absorbance was recorded at 490 nm on a BioTek Synergy Mx multimode plate reader and the viability of cells were plotted as percentage of controls.

[2] = target: T1, Mitochondrial respiratory complex II (Rattus norvegicus, UniProt P21913+Q641Z9+Q6PCT8+Q920L2); experiment: Mitochondrial respiratory complex II inhibition assay; assay type: biochemical; settings: for inhibition at 100 µM: read-out: inhibition of CII; for IC50: isolated rat heart mitochondria, mean ±SD of n = 4, read-out: CII IC50
T1 construct: measured spectrophotometrically using isolated rat heart mitochondria; from tissue; host or cells: rat heart mitochondria / sub-mitochondrial particles
Method: The assay was performed as follows. Mitochondria were isolated either from fresh rat hearts or by differential centrifugation in sucrose-based buffer as previously described.^24 Complex II enzymatic activity was determined spectrophotometrically as the rate of succinate-driven, co-enzyme Q2-linked reduction of dichlorophenolindophenol (DCPIP).^49 Mitochondria or sub-mitochondrial particles were incubated in phosphate buffer (pH 7.4) containing 40 μM DCPIP, 1 mM KCN, 10 μM rotenone, and 50 μM co-enzyme Q2. The rate of reduction of DCPIP to DCPIPH2 was followed at […] (ε=21,000 M-1). Varying amounts of succinate and inhibitors were used to determine an IC50 value. At the end of each run thenoyltrifluoroacetone (1 mM) was added and the residual TTFA-insensitive rate subtracted.

[3] = test system: MDA-MB-468 triple negative breast cancer cells; experiment: MTS cytotoxicity assay in MDA-MB-468 triple negative breast cancer cells; assay type: cell-based; settings: for effect on MDA-MB 468 TNBC cell viability: 10, 50 and 100 μM for 24, 48 and 72 hours, MTS; for IC50: Homo sapiens, MDA-MB-468, 72 hours, mean ± SD n = 3
Method: The assay was performed as follows.
Derivatives were dosed at 10, 50 and 100 μM for 24, 48 and 72 hours and cell viability measured by MTS assay (FIG. 5).

[4] = test system: VEGF-induced proliferation of HUVEC cells; experiment: VEGF-induced HUVEC proliferation, MTT assay; assay type: cell-based, human; settings: for inhibition of VEGF-induced HUVEC proliferation (in words): 20 μM; for inhibition at 20 µM: Homo sapiens, read-out: % Inhibition of Proliferation
Method: The assay was performed as follows. Vascular endothelial growth factor (VEGF, Cat #SRP3182) was purchased from Sigma. […] Stock solutions of all compounds were prepared in DMSO and were serially diluted for cell culture treatment maintaining the final DMSO concentration at less than 1%. Cell proliferation of HUVECs was evaluated through the MTT (3-[4, 5-dimethylthiazol-2-yl]-2, 5-dimethyltetrazolium bromide) colorimetric assay, as previously described.^28 The HUVECs were seeded at a density of 10,000 cells/well in 24 well plates in serum-containing medium and cultured overnight. Cells were starved with 300 μL of assay media (0.1% BSA+0.1% FBS in basal medium) for 24 h. Then, cells were treated with 500 μL of assay medium (control group), VEGF (10 ng/mL, positive control group) or VEGF along with compounds (20 μM). After 48 h of culture, 50 μL of MTT stock (5 mg/mL in PBS) was added to each well and incubated for 2 h at 37° C. to allow the formation of dark blue formazan crystals in the metabolically active cells. The medium was removed, the cells were washed with PBS (pH 7.4), and 100 μL of acidified isopropanol (0.33 mL HCl in 100 mL isopropanol) was added to each well and incubated for 5 min with thorough agitation to solubilize the formazan crystals. An equal volume of the solution was transferred to a 96-well plate and the absorbance was immediately measured using a microplate reader at a wavelength of 570 nm.

[5] = 100 μM, relative to DMSO control
[6] = HUVEC, 48 h, 20 μM compound, VEGF 10 ng/mL, HUVEC, 48 h, relative to VEGF treated cells, mean ± SEM n = 3

T1 sequence (Q920L2 35-656): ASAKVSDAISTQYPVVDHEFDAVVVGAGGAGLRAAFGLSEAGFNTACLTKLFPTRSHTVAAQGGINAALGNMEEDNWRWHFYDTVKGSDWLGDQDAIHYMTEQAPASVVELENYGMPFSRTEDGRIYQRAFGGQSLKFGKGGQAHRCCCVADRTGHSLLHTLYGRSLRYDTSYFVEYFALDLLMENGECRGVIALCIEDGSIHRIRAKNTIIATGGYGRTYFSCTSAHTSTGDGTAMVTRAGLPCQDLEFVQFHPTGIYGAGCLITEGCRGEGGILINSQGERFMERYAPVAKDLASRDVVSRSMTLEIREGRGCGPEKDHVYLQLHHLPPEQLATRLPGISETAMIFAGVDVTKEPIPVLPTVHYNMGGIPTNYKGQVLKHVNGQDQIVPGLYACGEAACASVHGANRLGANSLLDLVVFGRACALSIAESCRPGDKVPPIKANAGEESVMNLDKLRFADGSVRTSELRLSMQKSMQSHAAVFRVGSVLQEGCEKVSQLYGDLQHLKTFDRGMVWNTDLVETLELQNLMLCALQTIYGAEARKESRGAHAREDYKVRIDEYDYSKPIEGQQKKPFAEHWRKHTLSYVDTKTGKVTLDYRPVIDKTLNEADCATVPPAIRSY
T1 sequence (P21913 31-282): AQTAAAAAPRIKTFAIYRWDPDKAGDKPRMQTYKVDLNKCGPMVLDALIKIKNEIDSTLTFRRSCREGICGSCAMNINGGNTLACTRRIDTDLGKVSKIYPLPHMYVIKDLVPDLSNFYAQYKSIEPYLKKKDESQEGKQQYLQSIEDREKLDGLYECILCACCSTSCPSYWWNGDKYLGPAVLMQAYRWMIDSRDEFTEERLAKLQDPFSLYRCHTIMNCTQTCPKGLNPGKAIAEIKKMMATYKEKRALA
T1 sequence (Q641Z9 1-169): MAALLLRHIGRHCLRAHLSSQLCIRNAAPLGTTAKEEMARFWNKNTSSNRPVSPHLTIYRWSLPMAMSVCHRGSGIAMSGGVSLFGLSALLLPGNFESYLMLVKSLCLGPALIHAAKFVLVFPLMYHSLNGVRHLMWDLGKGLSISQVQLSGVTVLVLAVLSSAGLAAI
T1 sequence (Q6PCT8 57-159): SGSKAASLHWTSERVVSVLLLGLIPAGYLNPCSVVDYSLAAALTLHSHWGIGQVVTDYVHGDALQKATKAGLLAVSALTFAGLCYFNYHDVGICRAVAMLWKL

Row | inhibition at 100 µM [2, 5] | SMILES | effect on MDA-MB 468 TNBC cell viability [3] | inhibition of VEGF-induced HUVEC proliferation (in words) ([4]; VEGF 10 ng/mL) | inhibition at 20 µM [4, 6] | cytotoxicity at 100 µM [1] | also measured
1 | 37% | COc1ccccc1CNC1=NS(=O)(=O)c2cc(F)ccc2N1 [Compound 26a, 7-fluoro-3-((2-methoxybenzyl)amino)-4H-benzo[e][1,2,4]thiadiazine 1,1-dioxide] | almost complete amelioration of cell viability | no appreciable inhibition | 29 ± 33% |  | 
2 | 55% | O=S1(=O)NC(=S)Nc2ccc(Br)cc21 [Compound 12c, 7-bromo-3-thioxo-3,4-dihydro-2H-1,2,4-benzothiadiazine 1,1-dioxide] |  |  |  | 16% | IC50 [2]: 37 µM
3 | 51% | CC(NC1=NS(=O)(=O)c2ccc(Cl)cc2N1)c1ccccc1 (centres unmarked) [Compound 24b, 6-chloro-3-((1-phenylethyl)amino)-4H-benzo[e][1,2,4]thiadiazine 1,1-dioxide] |  |  | 38 ± 33% | 50% | IC50 [2]: 89 µM
4 | 55% | CC(NC1=NS(=O)(=O)c2cc(Br)ccc2N1)c1ccccc1 (centres unmarked) [Compound 24c, 7-bromo-3-((1-phenylethyl)amino)-4H-benzo[e][1,2,4]thiadiazine 1,1-dioxide] |  |  |  | 70% | IC50 [2]: 79.8 µM
5 |  | O=S1(=O)N=C(NC2CCCC2)Nc2cc(Cl)ccc21 [Compound 22b, 6-chloro-3-(cyclopentylamino)-4H-benzo[e][1,2,4]thiadiazine 1,1-dioxide] |  |  |  | ~35% | IC50 [3]: 148 ± 26.3 µM
6 |  | O=S1(=O)N=C(NCc2ccc(Cl)cc2)Nc2ccc(F)cc21 [Compound 16a, 3-((4-chlorobenzyl)amino)-7-fluoro-4H-benzo[e][1,2,4]thiadiazine 1,1-dioxide] |  |  |  |  | reduction of 22Rv1 cell viability [1]: inactive
7 |  | O=S1(=O)NC(=S)Nc2ccc(F)cc21 [Compound 12a, 7-fluoro-3-thioxo-3,4-dihydro-2H-1,2,4-benzothiadiazine 1,1-dioxide] | no reduction of cell viability | no appreciable inhibition | 50 ± 35% |  | 
8 | 22% | CC(NC1=NS(=O)(=O)c2cc(F)ccc2N1)c1ccccc1 (centres unmarked) [Compound 24a, 7-fluoro-3-((1-phenylethyl)amino)-4H-benzo[e][1,2,4]thiadiazine 1,1-dioxide] |  |  |  | 34% | 
9 |  | COc1ccc(CNC2=NS(=O)(=O)c3ccccc3N2)cc1 [Compound 20d, 3-((4-methoxybenzyl)amino)-4H-benzo[e][1,2,4]thiadiazine 1,1-dioxide] | no reduction of cell viability |  |  |  | 
10 |  | COc1ccc(CNC2=NS(=O)(=O)c3cc(Cl)ccc3N2)cc1 [Compound 56e, 7-Chloro-3-((4-methoxybenzyl)amino)-4H-benzo[e][1,2,4]thiadiazine 1,1-dioxide] |  | suppressed HUVEC proliferation; also recorded: enhanced activity | 91 ± 15% |  | IC50 [3]: 62.9 ± 4.2 µM
11 |  | CC(C)C(C)NC1=NS(=O)(=O)c2cc(F)ccc2N1 (centres unmarked) [Compound 15a, 7-fluoro-3-((3-methylbutan-2-yl)amino)-4H-benzo[e][1,2,4]thiadiazine 1,1-dioxide] | substantially less active | no appreciable inhibition | 76 ± 18% |  | 
12 | 46% | O=S1(=O)N=C(NCCCc2ccccc2)Nc2ccc(Br)cc21 [Compound 23c, 7-bromo-3-((3-phenylpropyl)amino)-4H-benzo[e][1,2,4]thiadiazine 1,1-dioxide] |  |  | 24 ± 41% | 42% | inhibition of CII [2, 5]: 47%
13 |  | O=S1(=O)N=C(NCc2ccc(OC(F)(F)F)cc2)Nc2ccccc21 [Compound 30d, 3-((4-(trifluoromethoxy)benzyl)amino)-4H-benzo[e][1,2,4]thiadiazine 1,1-dioxide] |  |  |  | ~30% | 
14 |  | CC(C)NC1=NS(=O)(=O)c2ccccc2N1C [Compound 43d, 3-(isopropylamino)-4-methyl-4H-benzo[e][1,2,4]thiadiazine 1,1-dioxide] | no reduction of cell viability |  |  |  | 
15 | 38% | C=CCNC1=NS(=O)(=O)c2cc(F)ccc2N1 [Compound 32a, 3-(allylamino)-7-fluoro-4H-benzo[e][1,2,4]thiadiazine 1,1-dioxide] |  |  |  | 24% | 
16 | 14% | O=S1(=O)N=C(NCCCc2ccccc2)Nc2ccc(F)cc21 [Compound 23a, 7-fluoro-3-((3-phenylpropyl)amino)-4H-benzo[e][1,2,4]thiadiazine 1,1-dioxide] | almost complete amelioration of cell viability | no appreciable inhibition | 0% |  | % Inhibition of Proliferation ([4]; 20 μM compound, VEGF 10 ng/mL, HUVEC, 48 h, relative to VEGF treated cells, mean ± SEM n = 3): inactive
17 | 64% | COc1ccc(CNC2=NS(=O)(=O)c3cc(Br)ccc3N2)cc1 [Compound 20c, 7-bromo-3-((4-methoxybenzyl)amino)-4H-benzo[e][1,2,4]thiadiazine 1,1-dioxide] | potent activity |  |  | 41% | IC50 [2]: 79.7 µM
18 | 17% | O=S1(=O)N=C(NCCc2c[nH]c3ccccc23)Nc2ccc(F)cc21 [Compound 36a, 3-((2-(1H-indol-3-yl)ethyl)amino)-7-fluoro-4H-benzo[e][1,2,4]thiadiazine 1,1-dioxide] | almost complete amelioration of cell viability | no appreciable inhibition | 41 ± 26% | 30% | 
19 |  | O=S1(=O)N=C(NCCc2ccccc2)Nc2ccc(Br)cc21 [Compound 18c, 7-bromo-3-(phenethylamino)-4H-benzo[e][1,2,4]thiadiazine 1,1-dioxide] | potent activity |  |  |  | inhibition at 20 µM ([4]; HUVEC, 48 h): 47 ± 24%
20 |  | Cc1ccc(CNC2=NS(=O)(=O)c3cc(Cl)ccc3N2)cc1 [Compound 61e, 7-Chloro-3-((4-methylbenzyl)amino)-4H-benzo[e][1,2,4]thiadiazine 1,1-dioxide] |  | suppressed HUVEC proliferation; also recorded: enhanced activity | 119 ± 10% |  | IC50 [3]: 43.1 µM
21 | 81% | O=S1(=O)NC(=S)Nc2cc(Cl)ccc21 [Compound 12b, 6-chloro-3-thioxo-3,4-dihydro-2H-1,2,4-benzothiadiazine 1,1-dioxide] |  |  | 0% | 12% | IC50 [2]: 11.9 µM

Row | SMILES | inhibition at 100 µM [2, 5] | effect on MDA-MB 468 TNBC cell viability [3] | inhibition of VEGF-induced HUVEC proliferation (in words) ([4]; VEGF 10 ng/mL) | inhibition at 20 µM [4, 6] | cytotoxicity at 100 µM [1] | also measured
22 | O=S1(=O)N=C(NCCc2ccc(Cl)cc2)Nc2ccc(F)cc21 [Compound 37a, 3-((4-chlorophenethyl)amino)-7-fluoro-4H-benzo[e][1,2,4]thiadiazine 1,1-dioxide] | 34% |  |  |  |  | reduction of 22Rv1 cell viability [1]: inactive
